Laboratory results taken from patent publication US20240173403A1, “Combination of AXL Antibodies and ACE Inhibitors in the Treatment of Fibrosis” (BERGENBIO ASA, priority 2021, published 2024).
Entries after “also recorded” stand apart in the source; their conditions may differ. Read-outs that look alike come from different tables or passages of the source.

How the values were obtained:
TIMP-1 = TIMP-1 levels in human PCKS culture supernatants (ELISA); assay type: cell-based
Protocol: (§1) PCKS were prepared from explanted kidney tissue and rested for 24 hours to allow the post-slicing stress period to elapse before experiments began. All PCKS were harvested at 96 hrs.
(§2) PCKS were incubated for a 24 hr rest period. Post-rest, PCKS were incubated for a further 72 hrs in the presence or absence of inhibitors. PCKS culture media, including all compounds, was refreshed and harvested at 24 hrs intervals. All PCKS were harvested at 96 hrs.
(§3) Tissue culture supernatant (n=3 paired wells) were collected every 24 hrs and snap frozen for quantification of soluble outputs. At 96 hrs n=4 PCKS were snap frozen for RNA extraction and n=2 PCKS were formalin fixed paraffin embedded (FFPE) for IHC.
(§4) Levels of collagen 1a1, IL-6, Hyaluronic Acid and TIMP-1 in the tissue culture supernatants (n=165 samples per donor) were quantified using R&D Duoset ELISA kits.

IL-6 = IL-6 levels in human PCKS culture supernatants (ELISA); assay type: cell-based; settings: two of the high doses of Bemcentinib; early time point (48 hrs)
Protocol: as §1, §2, §3, §4

liver fibrosis = settings: mice; Barcena et al. 2015; cited from earlier work
Collagen 1a1 = Collagen 1a1 levels in human PCKS culture supernatants (ELISA); assay type: cell-based
Protocol: as §1, §2, §3, §4
Levels of collagen 1a1 in the tissue culture supernatants were quantified using R&D Duoset ELISA kits.

lung fibrosis = settings: two mouse lung fibrosis models; Espindola et al. 2018; cited from earlier work
[1] = tested on: αSMA (activated myofibroblasts); experiment: α-SMA staining of PCKS sections, % area positive; assay type: cell-based, human; settings: 96 hrs harvest
Protocol: as §1, §3
FFPE tissue was cut into 5 μm sections and stained for Picrosirius Red and α-Smooth Muscle Actin (αSMA) (n=19 samples per donor). Analysis was performed by a pathology trained technical staff member without knowledge of the sample ID. High magnification images were taken of each slide and analysed for the surface area covered by the stain (e.g. percentage area positive for Oil Red O, Picrosirius or αSMA).
α-SMA stained PCKS sections were prepared. Up to 25 high magnification images (×20) from each PCKS were quantified for the percentage area of tissue positive for stain and averaged to give a mean tissue area positive for α-SMA.
Histological effects of treatments were assessed on the basis of changes in percentage positive area stained for αSMA (activated myofibroblasts) and Picrosirius Red (collagen deposition).

kidney fibrosis = settings: UUO mice, bemcentinib monotherapy, Landolt et al. 2019, cited from earlier work
Hyaluronic Acid = Hyaluronic Acid levels in human PCKS culture supernatants (ELISA); assay type: cell-based; settings: Nintedanib 4 μM
Protocol: as §1, §2, §3, §4

[2] = Enalapril alone (0.75, 0.15 μM)
[3] = 4 μM, 72 hrs and 96 hrs of treatment, positive control
[4] = Tilvestamab monotherapy (1 to 125 μg/mL)

Nc1nc(Nc2ccc3c(c2)CC[C@@H](N2CCCC2)CC3)nn1-c1cc2c(nn1)-c1ccccc1CCC2 [Bemcentinib, 1-(6,7-dihydro-5H-benzo[6,7]cyclohepta[1,2-c]pyridazin-3-yl)-N^3-((7-(S)-pyrrolidin-1-yl)-6,7,8,9-tetrahydro-5H-benzo[7]annulene-2-yl)-1H-1,2,4-triazole-3,5-diamine]
TIMP-1 production (TIMP-1; Bemcentinib monotherapy, all doses (0.11, 0.33, 1, 3 μM)): able to reduce production of the fibrotic markers Collagen 1a1 and TIMP-1 at all doses
IL-6 secretion (IL-6): spike in IL-6 secretion
liver fibrosis (liver fibrosis): reduced liver fibrosis
Collagen 1a1 production (Collagen 1a1; Bemcentinib monotherapy, all doses (0.11, 0.33, 1, 3 μM), not dose dependent): able to reduce production of the fibrotic markers Collagen 1a1 and TIMP-1 at all doses
fibrosis development in lung (lung fibrosis): reduction in fibrosis development
αSMA, percentage positive area ([1]; Bemcentinib singly, 3 μM): reduce expression of the fibrotic marker αSMA; also recorded: reduced
fibrosis development in kidney (kidney fibrosis): attenuate fibrosis and reduce inflammation
fibrosis development in kidney (kidney fibrosis; listed as bemcentinib): less fibrosis development

CCOC(=O)[C@H](CCc1ccccc1)N[C@@H](C)C(=O)N1CCC[C@H]1C(=O)O [Enalapril]
TIMP-1 secretion (TIMP-1; [2]): did not show any efficacy towards reducing TIMP-1 secretion
Collagen 1a1 secretion (Collagen 1a1; [2]): did not show any efficacy towards reducing Collagen 1a1 secretion
αSMA, percentage positive area ([1]; Enalapril singly, 0.15 μM): reduced
αSMA, percentage positive area ([1]; Enalapril singly, 0.15 μM, listed as Enalaril): reduce expression of the fibrotic marker αSMA

COC(=O)c1ccc2c(c1)NC(=O)/C2=C(\Nc1ccc(N(C)C(=O)CN2CCN(C)CC2)cc1)c1ccccc1 [Nintedanib]
TIMP-1 production (TIMP-1; [3]): significantly inhibit TIMP-1 production
Hyaluronic acid (Hyaluronic Acid): readily reduced
Collagen 1a1 production (Collagen 1a1; [3]): inhibited Collagen 1a1 production

B1: Tilvestamab: novel humanized anti-AXL antibody that blocks GAS6-mediated AXL receptor activation; VH SEQ ID No.1, VL SEQ ID No.2 (antibody, V domains shown)
VH: EVQLVESGGGLVQPGGSLRLSCAASGYSFTDFYINWVRQAPGKGLEWVARIFPGGDNTYYNEKFKGRFTLSADTSKSTAYLQMNSLRAEDTAVYYCARRGLYYAMDYWGQGTLVTVSS
VL: DIQMTQSPSSLSASVGDRVTITCRSSQSLVHSNGIPYLHWYQQKPGKAPKLLIYRVSNRFSGVPSRFSGSGSGTDFTLTISSLQPEDFATYYCSQGTHVPPTFGQGTKVEIK
modifications: BGB149 VH; BGB149 VL
TIMP-1 secretion (TIMP-1; [4]): no effect on reducing Collagen 1a1 or TIMP-1 secretion; also recorded: no effect on reducing TIMP-1 secretion
Collagen 1a1 secretion (Collagen 1a1; [4]): no effect on reducing Collagen 1a1 or TIMP-1 secretion; also recorded: no effect on reducing Collagen 1a1 secretion
αSMA, percentage positive area ([1]; Tilvestamab singly, three of the highest doses): did reduce αSMA; also recorded: reduced
